ChEMBL document CHEMBL3862010, “N-Arylsulfonyl-α-amino carboxamides are potent and selective inhibitors of the chemokine receptor CCR10 that show efficacy in the murine DNFB model of contact hypersensitivity” (Bioorg Med Chem Lett, 2016)
Values belong to the molecule of their own block, whether it stands above or below them.

Tests used:
[1] = target: T1, C-C chemokine receptor type 10 (Mus musculus, UniProt Q9JL21); assay: Antagonist activity at mouse CCR10 expressed in CHOK1 cells coexpressing aequorin/Galphaq assessed as inhibition of CCL27-dependent calcium flux in presence of coelenterazine H by chemiluminescence assay; format: functional, cell-based, CHO-K1
T1 sequence (Q9JL21 whole entry): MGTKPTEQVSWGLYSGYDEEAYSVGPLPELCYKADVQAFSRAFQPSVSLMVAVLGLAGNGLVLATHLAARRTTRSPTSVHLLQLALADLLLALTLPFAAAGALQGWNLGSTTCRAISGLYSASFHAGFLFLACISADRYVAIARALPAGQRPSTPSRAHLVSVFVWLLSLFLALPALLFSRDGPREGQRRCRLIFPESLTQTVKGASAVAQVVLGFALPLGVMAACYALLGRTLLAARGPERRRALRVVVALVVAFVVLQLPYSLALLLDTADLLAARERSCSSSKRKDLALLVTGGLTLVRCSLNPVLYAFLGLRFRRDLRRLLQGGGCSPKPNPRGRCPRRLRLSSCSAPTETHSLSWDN

[2] = target: T2, C-C chemokine receptor type 10 (Homo sapiens, UniProt P46092); assay: Antagonist activity at human CCR10 expressed in CHOK1 cells coexpressing aequorin/Galphaq assessed as inhibition of human CCL27-dependent calcium flux in presence of coelenterazine H by chemiluminescence assay; format: functional, cell-based, CHO-K1; conditions: read-out: pIC50 (converted)
T2 sequence (P46092 whole entry): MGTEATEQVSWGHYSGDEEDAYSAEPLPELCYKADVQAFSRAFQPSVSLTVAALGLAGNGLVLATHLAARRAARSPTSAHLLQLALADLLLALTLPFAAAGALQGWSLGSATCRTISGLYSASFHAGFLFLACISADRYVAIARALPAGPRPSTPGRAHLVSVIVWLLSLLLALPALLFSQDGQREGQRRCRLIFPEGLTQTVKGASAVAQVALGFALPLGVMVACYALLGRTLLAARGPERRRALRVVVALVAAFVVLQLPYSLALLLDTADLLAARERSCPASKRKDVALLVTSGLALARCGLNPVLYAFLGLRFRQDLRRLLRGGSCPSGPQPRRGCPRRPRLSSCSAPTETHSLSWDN

[3] = target: T2, C-C chemokine receptor type 10; assay: Antagonist activity at human CCR10 expressed in CHOK1 cells coexpressing aequorin/Galphaq assessed as inhibition of CCL27-dependent calcium flux in presence of coelenterazine H by FLIPR assay; format: functional, cell-based, CHO-K1
[4] = target: T2, C-C chemokine receptor type 10; assay: Antagonist activity at human CCR10 expressed in HEK cell membranes assessed as inhibition of human CCL27-dependent europium-labeled GTP binding; set-up: species or system HEK293
[5] = target: D(1A) dopamine receptor (Homo sapiens) (UniProt P21728); assay: Binding affinity to human dopamine D1 receptor at 10 uM relative to control
Rattus norvegicus [6] = organism: Rattus norvegicus; assay: Binding affinity to rat muscarinic acetylcholine receptor at 10 uM relative to control
Homo sapiens [7] = organism: Homo sapiens; assay: Binding affinity to human dopamine D4.2 receptor at 10 uM relative to control
[8] = target: C-X-C chemokine receptor type 2 (Homo sapiens, UniProt P25025); assay: Antagonist activity at human CXCR2 assessed as inhibition of GROalpha-induced calcium flux; format: functional
[9] = target: Type-1 angiotensin II receptor (Homo sapiens) (UniProt P30556); assay: Binding affinity to human AT1 receptor at 10 uM relative to control
[10] = target: Adrenergic receptor beta (Rattus norvegicus) (UniProt P18090+P10608+P26255); assay: Binding affinity to rat adrenergic beta receptor at 10 uM relative to control
[11] = target: Adrenergic receptor alpha-1 (Rattus norvegicus) (UniProt P15823+P23944+P43140); assay: Binding affinity to rat adrenergic alpha1 receptor at 10 uM relative to control
[12] = target: 5-hydroxytryptamine receptor 3A (Homo sapiens) (UniProt P46098); assay: Binding affinity to human 5-HT3 receptor at 10 uM relative to control
[13] = target: Calcitonin gene-related peptide type 1 receptor (Homo sapiens) (UniProt Q16602); assay: Binding affinity to human CGRP1 receptor at 10 uM relative to control
Histamine H4 receptor = Histamine H4 receptor (Homo sapiens, UniProt Q9H3N8); assay: Antagonist activity at human histamine H4 receptor assessed as inhibition of histamine-induced calcium flux; format: functional
[14] = target: C-C chemokine receptor type 6 (Homo sapiens, UniProt P51684); assay: Antagonist activity at human CCR6 assessed as inhibition of CCL20/MIP-3alpha-induced calcium flux; format: functional
[15] = target: Adrenergic receptor alpha-2 (Rattus norvegicus) (UniProt P22086+P19328+P22909); assay: Binding affinity to rat adrenergic alpha2 receptor at 10 uM relative to control
[16] = target: 5-hydroxytryptamine receptor 2A (Rattus norvegicus) (UniProt P14842); assay: Binding affinity to rat 5-HT2 receptor at 10 uM relative to control
[17] = target: C-C chemokine receptor type 2 (Homo sapiens, UniProt P41597); assay: Antagonist activity at human CCR2 assessed as inhibition of MCP1-induced calcium flux; format: functional
[18] = target: C-X-C chemokine receptor type 3 (Homo sapiens, UniProt P49682); assay: Antagonist activity at human CXCR3 assessed as inhibition of IP10-induced calcium flux; format: functional
[19] = target: D(3) dopamine receptor (Homo sapiens) (UniProt P35462); assay: Binding affinity to human dopamine D3 receptor at 10 uM relative to control
[20] = target: T2, C-C chemokine receptor type 10; assay: Displacement of human CCL27-Fc from CCR10 expressed in HEK cell membranes by immunochemical binding analysis; set-up: species or system HEK293
[21] = target: Histamine H2 receptor (Homo sapiens) (UniProt P25021); assay: Binding affinity to human histamine H2 receptor at 10 uM relative to control
Homo sapiens [22] = organism: Homo sapiens; assay: Binding affinity to human nicotinic acetylcholine receptor at 10 uM relative to control
[23] = target: C-C chemokine receptor type 1 (Homo sapiens, UniProt P32246); assay: Antagonist activity at human CCR1 assessed as inhibition of MIP1alpha-induced calcium flux; format: functional
[24] = target: T2, C-C chemokine receptor type 10; assay: Reversible inhibition of human CCL27-Fc binding to CCR10 expressed in HEK cell membranes by immunochemical binding assay; set-up: species or system HEK293
[25] = target: D(2) dopamine receptor (Homo sapiens) (UniProt P14416); assay: Binding affinity to human dopamine D2L receptor at 10 uM relative to control
[26] = target: B2 bradykinin receptor (Homo sapiens) (UniProt P30411); assay: Binding affinity to human B2 bradykinin receptor at 10 uM relative to control
[27] = target: Histamine H1 receptor (Homo sapiens) (UniProt P35367); assay: Binding affinity to human histamine H1 receptor at 10 uM relative to control
Rattus norvegicus [28] = organism: Rattus norvegicus; assay: Binding affinity to rat GABA-B receptor at 10 uM relative to control
[29] = target: C-C chemokine receptor type 5 (Homo sapiens, UniProt P51681); assay: Antagonist activity at human CCR5 assessed as inhibition of RANTES-induced calcium flux; format: functional
[30] = target: T2, C-C chemokine receptor type 10; assay: Antagonist activity at human CCR10 expressed in CHOK1 cells coexpressing aequorin/Galphaq assessed as inhibition of human CCL28-dependent calcium flux by chemiluminescence assay; format: functional, cell-based, CHO-K1
[31] = target: T2, C-C chemokine receptor type 10; assay: Antagonist activity at human CCR10 expressed in CHOK1 cells coexpressing aequorin/Galphaq assessed as inhibition of human CCL28-dependent calcium flux by FLIPR assay; format: functional, cell-based, CHO-K1
[32] = target: 5-hydroxytryptamine receptor 4 (Cavia porcellus) (UniProt O70528); assay: Binding affinity to guinea pig 5-HT4 receptor at 10 uM relative to control
[33] = target: T2, C-C chemokine receptor type 10; assay: Antagonist activity at human CCR10 expressed in HEK cells assessed as inhibition of human CCL27-dependent cAMP production; format: functional, cell-based, HEK293
Rattus norvegicus [34] = organism: Rattus norvegicus; assay: Binding affinity to rat 5-HT1 receptor at 10 uM relative to control

Chain of C-C chemokine receptor type 6 (P51684 whole entry): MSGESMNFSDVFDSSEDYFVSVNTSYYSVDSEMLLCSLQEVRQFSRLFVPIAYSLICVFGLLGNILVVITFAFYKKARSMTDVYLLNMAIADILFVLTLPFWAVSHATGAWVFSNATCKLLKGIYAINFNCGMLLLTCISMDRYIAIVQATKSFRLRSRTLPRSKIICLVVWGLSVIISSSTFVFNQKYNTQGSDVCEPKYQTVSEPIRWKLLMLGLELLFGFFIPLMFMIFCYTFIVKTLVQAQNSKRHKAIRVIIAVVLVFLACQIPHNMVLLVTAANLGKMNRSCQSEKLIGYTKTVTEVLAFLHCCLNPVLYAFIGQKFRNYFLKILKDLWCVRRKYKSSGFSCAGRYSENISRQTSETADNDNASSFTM
Chain of B2 bradykinin receptor (Homo sapiens) (P30411 whole entry): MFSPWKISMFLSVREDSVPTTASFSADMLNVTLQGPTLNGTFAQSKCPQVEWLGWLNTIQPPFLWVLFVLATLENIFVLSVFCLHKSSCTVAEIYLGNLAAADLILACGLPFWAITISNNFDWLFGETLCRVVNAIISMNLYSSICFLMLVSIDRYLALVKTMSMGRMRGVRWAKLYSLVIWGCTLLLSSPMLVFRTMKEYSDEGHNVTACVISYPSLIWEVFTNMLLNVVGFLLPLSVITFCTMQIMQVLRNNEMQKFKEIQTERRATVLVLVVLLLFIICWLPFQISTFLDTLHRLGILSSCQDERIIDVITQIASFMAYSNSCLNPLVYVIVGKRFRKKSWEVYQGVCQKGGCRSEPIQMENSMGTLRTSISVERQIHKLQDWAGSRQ
Chain of C-X-C chemokine receptor type 3 (P49682 whole entry): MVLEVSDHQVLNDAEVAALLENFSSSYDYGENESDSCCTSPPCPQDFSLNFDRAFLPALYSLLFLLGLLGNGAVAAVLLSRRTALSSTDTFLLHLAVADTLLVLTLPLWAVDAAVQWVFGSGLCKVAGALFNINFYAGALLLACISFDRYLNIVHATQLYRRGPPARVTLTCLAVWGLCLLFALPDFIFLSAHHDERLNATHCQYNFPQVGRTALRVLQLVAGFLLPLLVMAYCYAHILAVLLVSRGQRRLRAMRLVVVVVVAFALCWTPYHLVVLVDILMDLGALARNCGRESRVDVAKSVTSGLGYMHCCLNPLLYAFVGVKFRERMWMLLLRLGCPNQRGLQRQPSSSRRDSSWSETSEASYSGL
Chain of C-C chemokine receptor type 1 (P32246 whole entry): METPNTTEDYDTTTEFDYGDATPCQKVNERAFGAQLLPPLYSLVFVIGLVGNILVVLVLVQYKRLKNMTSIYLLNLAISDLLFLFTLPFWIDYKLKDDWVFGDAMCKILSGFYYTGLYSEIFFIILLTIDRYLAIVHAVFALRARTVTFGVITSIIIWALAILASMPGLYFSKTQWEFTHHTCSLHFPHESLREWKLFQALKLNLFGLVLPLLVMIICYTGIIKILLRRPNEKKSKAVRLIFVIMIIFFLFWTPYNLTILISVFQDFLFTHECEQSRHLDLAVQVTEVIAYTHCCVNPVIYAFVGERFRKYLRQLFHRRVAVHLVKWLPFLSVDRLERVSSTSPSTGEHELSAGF
Chain of D(1A) dopamine receptor (Homo sapiens) (P21728 whole entry): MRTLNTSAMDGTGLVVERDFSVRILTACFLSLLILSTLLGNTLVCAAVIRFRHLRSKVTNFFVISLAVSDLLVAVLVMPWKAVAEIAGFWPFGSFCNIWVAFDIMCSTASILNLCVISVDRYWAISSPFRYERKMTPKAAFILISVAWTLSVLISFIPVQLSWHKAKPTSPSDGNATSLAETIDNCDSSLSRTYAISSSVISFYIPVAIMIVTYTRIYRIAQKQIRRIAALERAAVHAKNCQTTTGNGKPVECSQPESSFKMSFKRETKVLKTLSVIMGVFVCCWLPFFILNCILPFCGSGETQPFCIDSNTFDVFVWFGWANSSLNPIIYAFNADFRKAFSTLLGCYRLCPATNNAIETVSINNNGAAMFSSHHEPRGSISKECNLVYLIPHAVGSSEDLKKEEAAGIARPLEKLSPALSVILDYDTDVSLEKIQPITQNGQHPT
Chain of C-C chemokine receptor type 5 (P51681 whole entry): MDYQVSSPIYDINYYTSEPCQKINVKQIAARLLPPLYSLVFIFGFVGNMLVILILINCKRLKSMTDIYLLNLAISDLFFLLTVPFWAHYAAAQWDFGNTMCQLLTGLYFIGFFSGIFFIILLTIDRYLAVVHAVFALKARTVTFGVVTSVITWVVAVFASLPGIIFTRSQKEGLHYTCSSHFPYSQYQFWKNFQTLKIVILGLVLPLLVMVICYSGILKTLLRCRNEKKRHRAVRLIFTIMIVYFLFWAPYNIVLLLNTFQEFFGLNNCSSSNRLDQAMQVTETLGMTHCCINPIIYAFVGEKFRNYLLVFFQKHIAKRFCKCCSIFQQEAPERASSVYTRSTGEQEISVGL
Chain of 5-hydroxytryptamine receptor 4 (Cavia porcellus) (O70528 whole entry): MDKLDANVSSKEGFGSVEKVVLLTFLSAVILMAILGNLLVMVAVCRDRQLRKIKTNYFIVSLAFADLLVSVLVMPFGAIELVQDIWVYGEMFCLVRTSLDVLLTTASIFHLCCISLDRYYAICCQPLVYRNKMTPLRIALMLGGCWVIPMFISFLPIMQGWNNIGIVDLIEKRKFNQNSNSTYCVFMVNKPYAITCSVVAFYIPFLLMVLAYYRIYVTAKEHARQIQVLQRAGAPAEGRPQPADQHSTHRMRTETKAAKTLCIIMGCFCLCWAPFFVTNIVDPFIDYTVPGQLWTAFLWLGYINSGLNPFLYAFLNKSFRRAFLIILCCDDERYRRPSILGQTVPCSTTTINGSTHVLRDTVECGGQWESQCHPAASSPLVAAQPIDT
Chain of D(3) dopamine receptor (Homo sapiens) (P35462 whole entry): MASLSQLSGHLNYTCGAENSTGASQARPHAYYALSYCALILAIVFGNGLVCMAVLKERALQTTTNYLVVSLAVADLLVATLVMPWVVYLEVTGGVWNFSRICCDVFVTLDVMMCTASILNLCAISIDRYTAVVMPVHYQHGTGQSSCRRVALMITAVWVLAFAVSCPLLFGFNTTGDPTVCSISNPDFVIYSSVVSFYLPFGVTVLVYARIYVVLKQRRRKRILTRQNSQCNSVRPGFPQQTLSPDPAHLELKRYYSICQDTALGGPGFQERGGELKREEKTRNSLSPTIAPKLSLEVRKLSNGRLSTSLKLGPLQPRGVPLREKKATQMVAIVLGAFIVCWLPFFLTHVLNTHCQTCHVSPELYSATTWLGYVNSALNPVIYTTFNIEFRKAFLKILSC
Chain of 5-hydroxytryptamine receptor 3A (Homo sapiens) (P46098 whole entry): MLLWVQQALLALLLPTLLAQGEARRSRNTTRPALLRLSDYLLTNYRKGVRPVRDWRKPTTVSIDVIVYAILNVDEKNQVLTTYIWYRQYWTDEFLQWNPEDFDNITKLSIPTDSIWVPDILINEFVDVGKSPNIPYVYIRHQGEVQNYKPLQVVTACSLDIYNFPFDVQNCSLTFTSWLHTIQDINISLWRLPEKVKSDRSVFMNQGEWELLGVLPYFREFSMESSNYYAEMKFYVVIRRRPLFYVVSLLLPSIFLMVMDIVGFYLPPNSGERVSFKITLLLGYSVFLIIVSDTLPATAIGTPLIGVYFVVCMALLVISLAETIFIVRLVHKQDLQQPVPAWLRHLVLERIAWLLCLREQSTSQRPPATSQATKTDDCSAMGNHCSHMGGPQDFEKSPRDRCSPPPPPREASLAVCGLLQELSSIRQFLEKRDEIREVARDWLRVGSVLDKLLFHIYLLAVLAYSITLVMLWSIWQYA
Chain of Histamine H1 receptor (Homo sapiens) (P35367 whole entry): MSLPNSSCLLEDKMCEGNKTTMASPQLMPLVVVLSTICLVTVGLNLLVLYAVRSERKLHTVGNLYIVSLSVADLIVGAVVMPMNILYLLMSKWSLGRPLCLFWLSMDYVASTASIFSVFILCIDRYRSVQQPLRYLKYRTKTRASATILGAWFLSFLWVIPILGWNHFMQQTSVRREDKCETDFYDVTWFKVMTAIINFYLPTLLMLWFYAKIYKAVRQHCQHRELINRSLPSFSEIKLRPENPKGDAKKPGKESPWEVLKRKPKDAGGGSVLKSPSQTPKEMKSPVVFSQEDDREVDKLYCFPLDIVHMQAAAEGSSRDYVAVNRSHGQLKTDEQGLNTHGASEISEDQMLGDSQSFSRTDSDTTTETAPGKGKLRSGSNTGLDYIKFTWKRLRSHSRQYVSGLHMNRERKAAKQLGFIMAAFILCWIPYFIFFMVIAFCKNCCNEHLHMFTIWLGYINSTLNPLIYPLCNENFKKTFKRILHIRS
Chain of D(2) dopamine receptor (Homo sapiens) (P14416 whole entry): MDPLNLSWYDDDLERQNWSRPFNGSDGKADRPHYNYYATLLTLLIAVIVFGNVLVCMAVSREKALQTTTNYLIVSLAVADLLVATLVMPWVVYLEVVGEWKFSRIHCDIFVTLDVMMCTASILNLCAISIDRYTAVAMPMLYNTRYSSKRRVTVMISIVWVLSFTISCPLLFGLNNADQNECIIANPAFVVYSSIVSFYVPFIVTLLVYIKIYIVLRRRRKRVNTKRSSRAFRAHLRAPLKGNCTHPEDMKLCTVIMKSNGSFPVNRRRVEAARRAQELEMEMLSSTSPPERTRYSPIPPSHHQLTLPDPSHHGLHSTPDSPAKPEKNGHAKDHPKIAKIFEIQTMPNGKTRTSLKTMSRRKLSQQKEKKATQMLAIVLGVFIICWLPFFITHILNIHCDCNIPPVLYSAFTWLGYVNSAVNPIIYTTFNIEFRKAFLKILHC
Chain of C-C chemokine receptor type 2 (P41597 whole entry): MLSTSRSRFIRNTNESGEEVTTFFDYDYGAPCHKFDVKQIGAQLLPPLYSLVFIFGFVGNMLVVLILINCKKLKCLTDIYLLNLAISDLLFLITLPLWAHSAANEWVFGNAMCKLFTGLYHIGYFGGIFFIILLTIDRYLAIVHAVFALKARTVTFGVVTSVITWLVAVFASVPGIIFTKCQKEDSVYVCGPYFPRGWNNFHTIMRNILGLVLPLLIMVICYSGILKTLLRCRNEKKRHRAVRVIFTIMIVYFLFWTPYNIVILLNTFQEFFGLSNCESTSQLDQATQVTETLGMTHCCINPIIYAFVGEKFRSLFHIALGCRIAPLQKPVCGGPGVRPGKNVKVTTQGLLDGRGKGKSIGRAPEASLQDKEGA

IC50 [1]: 1000 nM
IC50 [2]: 7.94 nM
SMILES: CC1CCN(C(=O)C(CCn2cccc2C#N)NS(=O)(=O)c2ccc3cc[nH]c3c2)CC1 (centres undefined)

IC50 [1]: > 20000 nM
IC50 [2]: 1260 nM
SMILES: CC1CCN(C(=O)C(CCn2cccc2C#N)NS(=O)(=O)c2ccccc2)CC1 (centres undefined)

IC50 [3]: 2 nM
IC50 [4]: 20 nM
Activity [5]: < 10%
Activity (Rattus norvegicus [6]): 11%
Activity (Homo sapiens [7]): < 10%
IC50 [8]: > 10000 nM
Activity [9]: < 10%
Activity [10]: 12%
Activity [11]: < 10%
Activity [12]: < 10%
Activity [13]: < 10%
IC50 (Histamine H4 receptor): > 10000 nM
IC50 [14]: > 10000 nM
Activity [15]: < 10%
Activity [16]: < 10%
IC50 [17]: > 10000 nM
IC50 [18]: > 10000 nM
Activity [19]: 11%
IC50 [20]: 3.4 nM
IC50 [1]: 1580 nM
Activity [21]: 12%
Activity (Homo sapiens [22]): < 10%
IC50 [23]: > 10000 nM
IC50 [24]: 3.4 nM
Activity [25]: < 10%
Activity [26]: < 10%
IC50 [2]: 20 nM
Activity [27]: < 10%
Activity (Rattus norvegicus [28]): 10%
IC50 [29]: > 10000 nM
IC50 [30]: 12.6 nM
IC50 [31]: 12.6 nM
Activity [32]: 28%
IC50 [33]: 158 nM
Activity (Rattus norvegicus [34]): 11%
SMILES: CC1CCN(C(=O)C(CCn2cccc2C#N)NS(=O)(=O)c2cc(Cl)c(N)c(Cl)c2)CC1 (centres undefined)
